Read-outs that look alike come from different tables or passages of the source.
Columns and labels:
[1] = system: mice after myocardial infarction; assay: Myocardial infarction model, permanent LAD ligation (echocardiography, histology, immunostaining, PET, EM); type: in vivo, ICR (CD1) mice; conditions: six weeks post-MI, picrosirius red
Procedure: Model of heart failure in adult mice. To induce myocardial infarction (MI) in 8- to 10-week-old mice, the left anterior descending (LAD) artery was permanently ligated. Briefly, mice were anesthetized with 2% isoflurane and then intubated. The heart was exposed by performing a thoracotomy through the fourth or fifth intercostal space and an 8-0 nylon suture was tied around the LAD artery. 10 uls of Adenoviral SRC-3 (Ad-SRC-3) or adenoviral GFP (Ad-GFP) at a titre of 9×10^9 pfu/ml was injected into the anterior free wall near left ventricular descending coronary artery. To assess cell cycle entry, the analog 5-ethynyl-2′-deoxyuridine (EdU; 0.2 g/L, Santa Cruz, SC-284628A) was added to the drinking water for the 9 day duration of the experiment. Cell proliferation was measured using Click-iT EdU kit (Invitrogen, C10339). The initial dose of MCB-613 was administered intraperitoneally at 20 mg/kg 2 hours after surgery. Subsequent injections of the same dose were given for 6 additional days, and then repeated doses were given for 3 days at week 9 and week 16. Mice were harvested at indicated time points for analyses.
Echocardiography. Cardiac function was determined by echocardiography (VisualSonics, Vevo 2100, 40 Mhz-550S probe). After alignment in the transverse B-mode with the papillary muscles, cardiac function was measured on M-mode images.
(§1) Histological analysis. Whole hearts were fixed with 10% formalin, embedded in paraffin, and sectioned at 7 μm intervals. Each slide had 3 or 10 sections, which started at the apex and ended at the suture ligation site (approximately 30-50 slides). Sections at the papillary level (slides 20-30) were stained with Picrosirius red to identify areas of fibrosis. Infarct size was determined using a length-based approach.
Immunostaining analysis. Immunohistochemistry and immunofluorescent staining experiments were performed on FFPE (formalin-fixed and paraffin-embedded sections). TUNEL staining to detect apoptotic cells was done using the DeadEnd™ Fluorometric TUNEL System manufacturer's protocol (Promega, GS3250).
Model of heart failure in adult mice. To induce MI in eight- to ten-week-old mice, the left anterior descending (LAD) artery was permanently ligated. Briefly, mice were anesthetized with 2% isoflurane and then intubated. The heart was exposed by performing a thoracotomy through the fourth or fifth intercostal space and an 8-0 nylon suture was tied around the LAD. The initial dose of MCB-613 was administered intraperitoneally at 20 mg/kg, two hours after surgery. Subsequent injection at the same time of the day and same dose were given for six additional days, and then repeated doses were given for three days at week nine and week 16. Mice were harvested at the indicated time points for analyses.
Echocardiography. Cardiac function was determined by echocardiography (VisualSonics, Vevo 2100, 40 Mhz-550S probe). After alignment in the transverse B-mode with the papillary muscles, cardiac function was measured on M-mode images. Animal numbers for cardiac function in FIG. 11A are Day 0 control (17); MCB-613 (15), Day 1 control (10); MCB-613 (12), Day 14 […], Day 56 control (12); MCB-613 (15), Day 70 control (8); MCB-613 (10), Day 80 control (8); MCB-613 (11), Day 133 control (3); and MCB-613 (3).
as §1, with “three (3) to ten (10)” for “3 or 10”, “approach. TUNEL staining to detect apoptotic cells was performed using the DeadEnd™ Fluorometric TUNEL System (Promega, GS3250).” for “approach.”
Electron Microscopy. […]

[2] = system: SRC-1, SRC-2 or SRC-3 fused with the DNA binding domain of Gal4; assay: Gal4 luciferase reporter (pG5-luc / pBIND-SRC) in HeLa cells; type: cell-based; conditions: pG5-luc + pBIND-SRC-1, -2 or -3
Excerpt: The compounds described herein stimulate SRC intrinsic transcriptional activity. HeLa cells transfected with a Gal4 responsive luciferase reporter (pG5-luc) and a construct encoding SRC-1, SRC-2 or SRC-3 fused with the DNA binding domain of Gal4 (pBIND-SRC-1, pBIND-SRC-2 or pBIND-SRC-3) were exposed to treatments with compounds as described herein, including MCB-613, Compound 10-1, and Compound 10-2.

[3] = system: mice after myocardial infarction; assay: Progressive maximal exercise test, indirect calorimetry (VO2, VCO2); type: in vivo; conditions: after myocardial infarction
Procedure: RER, VO2 and VCO2 measurements. Respiratory exchange ratio (RER), oxygen consumption (VO^2) and carbon dioxide expiration (VCO2) were measured by indirect calorimetry using a progressive maximal exercise test until mice reached exhaustion.
RER, VO2 and VCO2 measurements. RER, VO2 and VCO2 were measured by indirect calorimetry using a progressive maximal exercise test until mice reached exhaustion.

[4] = mouse, in vivo
Procedure: (§2) Each of the three compounds was dissolved in DMSO (20 mg/mL), mixed with 30% hydroxypropyl-β-cyclodextrin at a 1:9 ratio, and administered to the CD-1 mice intraperitoneally (ip) or orally (po) through a gavage. After compound administration, blood samples (3 mice per compound) were collected at nine time points, i.e., at 5 minutes, 0.25 hours, 0.5 hours, 1 hour, 2 hours, 4 hours, 8 hours, 12 hours, and 24 hours, through the tail vein. Plasma was isolated from these blood samples and the compound plasma concentrations were determined by HPLC-MS/MS. Pharmacokinetic parameters were calculated using the program PKSolver, an add-in program for use in analyzing pharmacokinetic and pharmacodynamics data analysis, as described in Zhang et al., Computer Methods and Programs in Biomedicine, 99: 306-314 (2010).

in vivo = conditions: CD-1, mouse
Procedure: as §2

COc1ccccc1/C=C1\CN(CCC(C)C)C/C(=C\c2ccccc2OC)C1=O [Compound 10-1, (3E,5E)-1-isopentyl-3,5-bis(2-methoxybenzylidene)piperidin-4-one]
infarct size vs saline control [1]: decrease in infarct size | intrinsic transcriptional activity of SRCs (luciferase) [2]: selectively stimulates the intrinsic transcriptional activity of SRCs | cardiovascular fitness (VCO2, VO2, FIG. 9) [3]: improves cardiovascular fitness after myocardial infarction | Cl ([4]; ip): 0.97 (mg)/(ng/mL)/h | Cl ([4]; po): 7.3 (mg)/(ng/mL)/h | AUC(0-inf) (in vivo; ip): 851 ng·h/mL | AUC(0-t) (in vivo; ip): 623 ng·h/mL | Cmax (in vivo; ip): 357 ng/mL | Tmax (in vivo; ip): 15 min | half-life (in vivo; ip, Terminal phase t1/2): 1090 min | half-life (in vivo; ip, t1/2): 38.4 min | AUC(0-inf) (in vivo; po): 113 ng·h/mL | AUC(0-t) (in vivo; po): 98.4 ng·h/mL | Cmax (in vivo; po): 53.2 ng/mL | Tmax (in vivo; po): 30 min | half-life (in vivo; po, Terminal phase t1/2): 612 min | half-life (in vivo; po, t1/2): 72 min

COc1cccc(/C=C2\CN(CCC(C)C)C/C(=C\c3cccc(OC)c3)C2=O)c1 [Compound 10-2, (3E,5E)-1-isopentyl-3,5-bis(3-methoxybenzylidene)piperidin-4-one]
intrinsic transcriptional activity of SRCs (luciferase) [2]: selectively stimulates the intrinsic transcriptional activity of SRCs | Cl ([4]; ip): 1.7 (mg)/(ng/mL)/h | Cl ([4]; po): 6.1 (mg)/(ng/mL)/h | AUC(0-inf) (in vivo; ip): 482 ng·h/mL | AUC(0-t) (in vivo; ip): 334 ng·h/mL | Cmax (in vivo; ip): 463 ng/mL | Tmax (in vivo; ip): 4.8 min | half-life (in vivo; ip, Terminal phase t1/2): 954 min | half-life (in vivo; ip, t1/2): 15 min | AUC(0-inf) (in vivo; po): 135 ng·h/mL | AUC(0-t) (in vivo; po): 131 ng·h/mL | Cmax (in vivo; po): 182 ng/mL | Tmax (in vivo; po): 15 min | half-life (in vivo; po, Terminal phase t1/2): 1630 min | half-life (in vivo; po, t1/2): 46.8 min

From patent US12338229B2, “Small molecule stimulators of steroid receptor coactivator-3 and methods of their use as cardioprotective and/or vascular regenerative agents” (BAYLOR COLLEGE OF MEDICINE, priority 2018, dated 2025)
